Results from PubChem BioAssay (NCI).
“And” between values parts separate entries of the source, which are not always exact repeats. Identical values can stand only once.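 Test compounds were applied to cells in 96-well plates for 48 hours at 5 doses. GI50 marks 50% less growth. The concentration for full growth arrest is given as TGI.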 Where a SMILES comes first, the peptide text is derived from it. [ ]: non-standard residue; d: D form. The star is where a group is joined. ξ: configuration not given here. NMeN = CN[C@@H](CC(N)=O)C(=O)O; NMeV = CN[C@H](C(=O)O)C(C)C; ξNMeV = CNC(C(=O)O)C(C)C; Boc = CC(C)(C)OC(=O)*; ξNMeA = CNC(C)C(=O)O

Tests used:
Assay in all cases: NCI tumour cell line growth inhibition, 48 h
CCRF-CEM leukemia = test system: CCRF-CEM leukemia
COLO 205 colon = test system: COLO 205 colon
EKVX NSCLC = test system: EKVX NSCLC
HCC-2998 colon = test system: HCC-2998 colon
HOP-92 NSCLC = test system: HOP-92 NSCLC
NCI-H23 lung = test system: NCI-H23 lung
OVCAR-5 ovarian = test system: OVCAR-5 ovarian
SF-295 CNS = test system: SF-295 CNS
SF-539 CNS = test system: SF-539 CNS
UACC-257 melanoma = test system: UACC-257 melanoma

| Structure (SMILES) | TGI (CCRF-CEM leukemia) [µM] | TGI (COLO 205 colon) [µM] | TGI (EKVX NSCLC) | TGI (HCC-2998 colon) [µM] | TGI (HOP-92 NSCLC) [µM] | TGI (NCI-H23 lung) [µM] | TGI (OVCAR-5 ovarian) [µM] | TGI (SF-295 CNS) [µM] | TGI (SF-539 CNS) [µM] | TGI (UACC-257 melanoma) [µM] | GI50 (CCRF-CEM leukemia) [µM] | GI50 (COLO 205 colon) [µM] | GI50 (EKVX NSCLC) [µM] | GI50 (HCC-2998 colon) [µM] | GI50 (HOP-92 NSCLC) [µM] | GI50 (OVCAR-5 ovarian) [µM] | GI50 (SF-295 CNS) [µM] | GI50 (SF-539 CNS) [µM] | GI50 (UACC-257 melanoma) [µM] | GI50 (NCI-H23 lung) [µM] |
| --- | --- | --- | --- | --- | --- | --- | --- | --- | --- | --- | --- | --- | --- | --- | --- | --- | --- | --- | --- | --- |
| c1ccc2c(c1)-c1ccccc1C2N1CC2CCC(CC2)C1 | 35.8 | 38.1 | 51 µM | 31.4 | 48.5 | 47.5 | 37.2 | 38.1 | 48.9 | 47.1 |  |  |  |  |  |  |  |  |  |  |
| COC(=O)C(C)N(C)C(=O)[C@H](CC(N)=O)N(C)C(=O)[C@@H]1CCCN1C(=O)[C@H](C(C)C)N(C)C(=O)C(C(C)C)N(C)C(=O)[C@@H](NC(=O)OC(C)(C)C)C(C)C (stereo partly drawn) (Boc-V[ξNMeV][NMeV]P[NMeN][ξNMeA]-OMe) | > 100 | > 100 | > 50 µM and 35.3 µM | > 100 | > 100 | > 50 | > 100 | > 100 | > 100 | > 100 | 65.7 | 34.9 | 16.9 | > 100 | > 100 | > 100 | > 100 | > 100 | > 100 |  |
| CCC[CH2][Sn]([CH2]CCC)([O]C(=O)C(N)CSC)[O]C(=O)C(N)CSC (stereo not drawn) | 6.43 | 19.9 | 27.1 µM | 30.5 | 20.3 | 13.1 | 35.6 |  | 26.7 | 26.1 | 1.73 | 6.5 | 12.1 | 13.1 | 8.05 | 15.7 |  | 13.3 | 11.8 | 2.75 |
| COc1cccc(-c2nc3sccn3c2-c2ccnc(NCCNS(=O)(=O)c3ccccc3)c2)c1 | > 100 | 18.2 | > 100 µM | > 100 | 33.6 | 13.3 | > 100 | > 100 | > 100 | 55.2 | 1.88 | 1.87 | 3.13 | 6.23 | 0.596 | 5.65 | 2.62 | 4.98 | 4.47 | 2.64 |
| O=S(=O)(c1ccc(N=C2NN=C(c3c[nH]c4ccccc34)CS2)cc1)N1CCOCC1 | 58.8 | > 100 | > 100 µM | > 100 | > 100 | > 100 | > 100 |  | > 100 | > 100 | 4.69 | 14.7 | 5.76 | 24.6 | 3.7 | 49.1 |  | 27.7 | 9.54 | 18.3 |
| Cc1occc1C(=S)Nc1ccc(Cl)c(/C=N/OC(C)C)c1 | 44.4 | 37 | 59 µM | > 59.6 | 37.4 | 52.3 | 49.4 | 41.9 | 32.9 | 47.6 |  |  |  |  |  |  |  |  |  |  |
| Cc1ccc(/C=C/C(=O)c2sc(-c3cccnc3)nc2C)cc1 | > 100 | > 100 | > 100 µM | > 100 | > 100 | > 100 | > 100 | > 100 | > 100 | > 100 |  |  |  |  |  |  |  |  |  |  |
| NC(=S)N/N=C(\C(=O)Nc1cccc([N+](=O)[O-])c1)c1nc2ccc([N+](=O)[O-])cc2[nH]c1=O | > 100 | > 100 | > 100 µM | > 100 | > 100 | > 100 | > 100 | > 100 | > 100 | > 100 |  |  |  |  |  |  |  |  |  |  |
| NC(=N\N=C/c1cccc([N+](=O)[O-])c1)/C(N)=N\N=C/c1cccc([N+](=O)[O-])c1 | > 100 | > 100 | > 100 µM | > 100 | > 100 | > 100 | > 100 | > 100 | > 100 | > 100 | > 100 | > 100 | > 100 | > 100 | > 100 | > 100 | > 100 | > 100 | > 100 | > 100 |
| CCCN1CCN(c2ccc3nc(-c4ccc5nc(-c6cc(OC)ccc6OC)[nH]c5c4)[nH]c3c2)CC1 | 4.49 | 4.83 | 3.35 µM | 3.25 | 27 | 3.85 | 34.2 | 30.1 | 28.7 | 39.2 | 2.22 | 2.17 | 1.81 | 1.8 | 11 | 17.8 | 15.7 | 14.4 | 20 | 1.93 |
| Cn1nc(-c2ccccc2)nc1[N+](=O)[O-] | > 10 | > 10 | > 10 µM | > 10 | > 10 | > 10 | > 10 | > 10 | > 10 | > 10 |  |  |  |  |  |  |  |  |  |  |
| O=C1c2ccccc2C2(O)NC(=S)N(c3ccccc3)C12O (stereo not drawn) | > 100 | > 100 | > 100 µM | > 100 | > 100 | > 100 | > 100 | > 100 | > 100 | > 100 |  |  |  |  |  |  |  |  |  |  |
| Cc1cccc(Cl)c1NC(=O)/C=C/c1ccccc1 | > 100 | > 100 | > 100 µM | > 100 | > 100 | > 100 | > 100 | > 100 | > 100 | > 100 |  |  |  |  |  |  |  |  |  |  |
| COc1ccc2c(CN3CCC[C@H]3C(=O)O)cc3cc4c(cc3c2c1)OCO4 | > 100 | 46.2 | 65.7 µM | 33.7 | 82.5 |  | > 100 | 39.4 | 29.5 | 45.8 | 10.2 | 6.3 | 20.2 | 14.5 | 17.4 | 38.1 | 8.88 | 10.7 | 12.6 |  |
| NC(=O)c1ccc2c(-c3ccnc(NCCCO)n3)c(-c3ccc(F)cc3)nn2c1 | > 25 | > 25 | > 25 µM | > 25 | > 25 | > 25 | > 25 | > 25 | > 25 | > 25 | > 25 | > 20.6 | > 25 | > 25 | > 25 | > 25 | > 25 | > 25 | > 25 | > 25 |
